The structures appear in SMILES notation.

The assay addresses T1, GAL4 DBD (1-147)-CfEcR(DEF)/VP16AD-βRXREF-LmUSPEF (Choristoneura fumiferana, UniProt O77240).
T1 construct: The wild-type D, E, and F domains from spruce budworm Choristoneura fumiferana EcR (“CfEcR-DEF”)
In words: 27-63 Assay (luciferase reporter gene assay in stably transfected CHO cell clone). The class given is cell-based. As to conditions: for relative Max F1 27-63 Assay: maximum fold induction at any concentration relative to maximum fold induction of GS-E ligand. Here is the method: Stably transfected cells were selected by Zeocin resistance. Individually isolated CHO cell clones were transiently transfected with a GAL4 RE-luciferase reporter (pFR Luc). 27-63 clone was selected using Hygromycin.
Cells were trypsinized and diluted to a concentration of 2.5×10^4 cells mL. 100 μL of cell suspension was placed in each well of a 96 well plate and incubated at 37° C. under 5% CO2 for 24 h. Ligand stock solutions were prepared in DMSO and diluted 300 fold for all treatments.
Luciferase reporter gene expression was measured 48 h after cell treatment using Bright-Glo™ Luciferase Assay System from Promega (E2650). Luminescence was detected at room temperature using a Dynex MLX microtiter plate luminometer. EC50s were calculated from dose response data using a three-parameter logistic model.
Each assay was conducted in two separate wells, and the two values were averaged.
On the technique in general: Reporter assays use an easily measured gene product as a stand-in for the process of interest.

The mark [1] stands for this setting: CHO 27-63 clone, luciferase, 48 h.

As for `CCc1c(OC)cccc1C(=O)NN(C(=O)c1cc(C)cc(C)c1)C(C)(C)C` [GS ™-E ligand, 3,5-Dimethyl-benzoic acid N-tert-butyl-N′-(2-ethyl-3-methoxy-benzoyl)-hydrazide, reference compound], the EC50 (usually the midpoint of the concentration-response curve) was 288 nM. `Cc1cc(C)cc(C(=O)N(NC(=O)c2ccc3c(c2C)OC(CO)CO3)C(C)(C)C)c1` (stereo not shown) [RG-115789, 3,5-dimethylbenzoic acid N-tert-butyl-N′-(3-hydroxymethyl-5-methyl-2,3-dihydrobenzo[1,4]dioxine-6-carbonyl)-hydrazide]: a half-maximal effect (EC50) was put at 1850 nM. The “relative Max F1 27-63 Assay” value under setting [1] came to 0.81. Turning to `Cc1cc(C)cc(C(=O)N(NC(=O)c2ccc3c(c2C)O[C@@H](CO[Si](C)(C)C(C)(C)C)CO3)C(C)(C)C)c1` [RG-115790, 3,5-dimethylbenzoic acid N-tert-butyl-N′-[3-(tert-butyldimethylsilytoxymethyl)-5-methyl-2,3-dihydrobenzo[1,4]dioxine-6-carbonyl]-hydrazide], the EC50 was > 33000 nM. Also, the “relative Max F1 27-63 Assay” value under setting [1] came out at 0.0.

With `Cc1cc(C)cc(C(=O)N(NC(=O)c2ccc3c(c2C)OC(C(=O)O)CO3)C(C)(C)C)c1` (stereo not shown) [RG-115805, 7-[N′-tert-butyl-N′-(3,5-dimethyl-benzoyl)-hydrazinocarbonyl]-8-methyl-2,3-dihydro-benzo[1,4]dioxine-2-carboxylic acid], the EC50 is > 33000 nM. For the same compound, the “relative Max F1 27-63 Assay” value under setting [1] worked out at 0.01. Consider `COC(=O)[C@H]1COc2ccc(C(=O)NN(C(=O)c3cc(C)cc(C)c3)C(C)(C)C)c(C)c2O1` [RG-115806], for which the concentration giving a half-maximal response (EC50) is ~33000 nM. For the same compound, under setting [1], the “relative Max F1 27-63 Assay” value stood at 0.25. Regarding `Cc1cc(C)cc(C(=O)N(NC(=O)c2ccc3c(c2C)O[C@@H](C=NNC(N)=O)CO3)C(C)(C)C)c1` [RG-115807, 3,5-dimethyl-benzoic acid N-tert-butyl-N′-(3-formylsemicarbazide-5-methyl-2,3-dihydro-benzo[1,4]dioxine-6-carbonyl)-hydrazide], the EC50 worked out at 3340 nM. Moreover, the “relative Max F1 27-63 Assay” value under setting [1] is listed as 0.80.

On to `Cc1cc(C)cc(C(=O)N(NC(=O)c2ccc3c(c2C)OC(COC(=O)Nc2ccccc2)CO3)C(C)(C)C)c1` (stereo not shown) [RG-115808, phenyl-carbamic acid 7-[N′-tert-butyl-N′-(3,5-dimethyl-benzoyl)-hydrazinocarbonyl]-8-methyl-2,3-dihydro-benzo[1,4]dioxin-2-ylmethyl ester], for which the 50% effective concentration (EC50) is 1120 nM. Also, the “relative Max F1 27-63 Assay” value under setting [1] was 2.37. Take `Cc1cc(C)cc(C(=O)N(NC(=O)c2ccc3c(c2C)OC(CCN)CO3)C(C)(C)C)c1` (stereo not shown) [RG-115809, 3,5-dimethyl-benzoic acid N′-[3-(2-amino-ethyl)-5-methyl-2,3-dihydro-benzo[1,4]dioxine-6-carbonyl]-N-tert-butyl-hydrazide]: the 50% effective concentration (EC50) worked out at 3250 nM. Besides, under setting [1], the “relative Max F1 27-63 Assay” value is on record as 1.09. `Cc1cc(C)cc(C(=O)N(NC(=O)c2ccc3c(c2C)OC(C(=O)Oc2c(F)c(F)c(F)c(F)c2F)CO3)C(C)(C)C)c1` (stereo not shown) [RG-115810, 7-[N′-tert-butyl-N′-(3,5-dimethyl-benzoyl)-hydrazinocarbonyl]-8-methyl-2,3-dihydro-benzo[1,4]dioxine-2-carboxylic acid pentafluorophenyl ester]: the concentration for a half-maximal effect (EC50) was ~20000 nM. The “relative Max F1 27-63 Assay” value under setting [1] worked out at 1.23. As to `CNC(=O)C1COc2ccc(C(=O)NN(C(=O)c3cc(C)cc(C)c3)C(C)(C)C)c(C)c2O1` (stereo not shown) [RG-115811, 7-[N′-tert-butyl-N′-(3,5-dimethyl-benzoyl)-hydrazinocarbonyl]-8-methyl-2,3-dihydro-benzo[1,4]dioxine-2-carboxylic acid methylamide], the EC50 is > 33000 nM. Further, the “relative Max F1 27-63 Assay” value under setting [1] was determined as 0.24. In the case of `Cc1cc(C)cc(C(=O)N(NC(=O)c2ccc3c(c2C)OC(C=O)CO3)C(C)(C)C)c1` (stereo not shown) [RG-115812, 3,5-dimethyl-benzoic acid N-tert-butyl-N′-(3-formyl-5-methyl-2,3-dihydro-benzo[1,4]dioxine-6-carbonyl)-hydrazide], a half-maximal response (EC50) required 2680 nM. Moreover, the “relative Max F1 27-63 Assay” value under setting [1] stood at 0.86.

On to `Cc1ccc(S(=O)(=O)OCC2COc3ccc(C(=O)NN(C(=O)c4cc(C)cc(C)c4)C(C)(C)C)c(C)c3O2)cc1` (stereo not shown) [RG-115813, toluene-4-sulfonic acid 7-[N′-tert-butyl-N′-(3,5-dimethyl-benzoyl)-hydrazinocarbonyl]-8-methyl-2,3-dihydro-benzo[1,4]dioxin-2-ylmethyl ester], for which the EC50 was > 33000 nM. Besides, under setting [1], the “relative Max F1 27-63 Assay” value was 0.01. In turn, `Cc1cc(C)cc(C(=O)N(NC(=O)c2ccc3c(c2C)OC(C=NO)CO3)C(C)(C)C)c1` (stereo not shown) [RG-115814, 3,5-dimethyl-benzoic acid N-tert-butyl-N′-[3-(hydroxyimino-methyl)-5-methyl-2,3-dihydro-benzo[1,4]dioxine-6-carbonyl]-hydrazide] yielded a concentration for a half-maximal effect (EC50) of 320 nM. Moreover, under setting [1], the “relative Max F1 27-63 Assay” value is on record as 1.0. Take `Cc1cc(C)cc(C(=O)N(NC(=O)c2ccc3c(c2C)OC(CF)CO3)C(C)(C)C)c1` (stereo not shown) [RG-115815, 3,5-dimethyl-benzoic acid N-tert-butyl-N′-(3-fluoromethyl-5-methyl-2,3-dihydro-benzo[1,4]dioxine-6-carbonyl)-hydrazide]: the response was half-maximal at 300 nM (EC50). The “relative Max F1 27-63 Assay” value under setting [1] is 0.738. As to `Cc1cc(C)cc(C(=O)N(NC(=O)c2ccc3c(c2C)OC(CC#N)CO3)C(C)(C)C)c1` (stereo not shown) [RG-115816, 3,5-Dimethyl-benzoic acid N-tert-butyl-N′-(3-cyanomethyl-5-methyl-2,3-dihydro-benzo[1,4]dioxine-6-carbonyl)-hydrazide], the midpoint of the response, the EC50, lay at 4220 nM. Besides, the “relative Max F1 27-63 Assay” value under setting [1] is recorded as 0.85. Turning to `CSCC1COc2ccc(C(=O)NN(C(=O)c3cc(C)cc(C)c3)C(C)(C)C)c(C)c2O1` (stereo not shown) [RG-115817, 3,5-dimethyl-benzoic acid N-tert-butyl-N′-(5-methyl-3-methylsulfanylmethyl-2,3-dihydro-benzo[1,4]dioxine-6-carbonyl)-hydrazide], the EC50 was determined as 2900 nM. Under setting [1], the “relative Max F1 27-63 Assay” value is 0.95. Consider `Cc1cc(C)cc(C(=O)N(NC(=O)c2ccc3c(c2C)O[C@@H](CS(C)(=O)=O)CO3)C(C)(C)C)c1` [RG-115818, 3,5-Dimethyl-benzoic acid N-tert-butyl-N′-(3-methanesulfonyl-methyl-5-methyl-2,3-dihydro-benzo[1,4]dioxine-6-carbonyl)-hydrazide], for which the EC50 was 5260 nM. As to `CCCCCCC(N(NC(=O)c1ccc(CC)cc1)C(=O)c1cc(C)cc(C)c1)C(C)(C)C` (stereo not shown) [RG-115843], a half-maximal effect (EC50) was put at 850 nM. Also, under setting [1], the “relative Max F1 27-63 Assay” value is 0.73. Regarding `CCCCCCC(N(NC(=O)c1ccc(CC)cc1)C(=O)c1cc(OC)c(C)c(OC)c1)C(C)(C)C` (stereo not shown) [RG-115844], the midpoint of the response, the EC50, lay at 1230 nM. For the same compound, the “relative Max F1 27-63 Assay” value under setting [1] stood at 0.352. The matching figures for `CCCCCCC(N(NC(=O)c1ccc(CC)cc1)C(=O)c1cccnc1OC)C(C)(C)C` (stereo not shown) [RG-115845, 2-methoxy-nicotinic acid N-(1-tert-butyl-heptyl)-N′-(4-ethyl-benzoyl)-hydrazide]: 4470 nM and 0.52. In the case of `CCCCCCC(N(NC(=O)c1cccc(OC)c1C)C(=O)c1cc(C)cc(C)c1)C(C)(C)C` (stereo not shown) [RG-115853, 3,5-dimethyl-benzoic acid N-(1-tert-butyl-heptyl)-N′-(3-methoxy-2-methyl-benzoyl)-hydrazide], the midpoint of the response, the EC50, lay at 100 nM. In addition, under setting [1], the “relative Max F1 27-63 Assay” value amounted to 0.898.

On to `CCCCCCC(N(NC(=O)c1cccc(OC)c1C)C(=O)c1cc(OC)c(C)c(OC)c1)C(C)(C)C` (stereo not shown) [RG-115854], for which the EC50 came to 200 nM. Further, the “relative Max F1 27-63 Assay” value under setting [1] amounted to 0.917.

`COc1cccc(C(=O)NN(C(=O)c2cc(C)cc(C)c2)C(/C=C(\C)C(C)(C)C)C(C)(C)C)c1C` (stereo not shown) [RG-115855, 3-methoxy-2-methyl-benzoic acid N′-(1-tert-butyl-3,4,4-trimethyl-pent-2-enyl)-N′-(3,5-dimethyl-benzoyl)-hydrazide] displayed an EC50 of 26.7 nM. Further, the “relative Max F1 27-63 Assay” value under setting [1] is 1.16. As to `COc1cccc(C(=O)NN(C(=O)c2cc(C)cc(C)c2)/C(=C/C#N)C(C)(C)C)c1C` [RG-115860, 3-methoxy-2-methyl-benzoic acid N′-(1-tert-butyl-2-cyano-vinyl)-N′-(3,5-dimethylbenzoyl) hydrazide], the “Avg F1 27-63 Assay” value (at 33 μM, CHO 27-63 clone, luciferase, 48 h) was “Avg F1 = 2307 at 33 μM”.

In turn, `CCCCC(N(NC(=O)c1cccc(OC)c1C)C(=O)c1cc(C)cc(C)c1)C(C)(C)CCC` (stereo not shown) [RG-115877, 3,5-Dimethyl-benzoic acid N-(1-butyl-2,2-dimethyl-pentyl)-N′-(3-methoxy-2-methyl-benzoyl)-hydrazide] registered an EC50 of 2250 nM. The “relative Max F1 27-63 Assay” value under setting [1] is reported as 1.48. The matching figures for `C=CCC(C)(C)C(CCCC)N(NC(=O)c1cccc(OC)c1C)C(=O)c1cc(C)cc(C)c1` (stereo not shown) [RG-115878, 3,5-dimethyl-benzoic acid N-(1-butyl-2,2-dimethyl-pent-4-enyl)-N′-(3-methoxy-2-methyl-benzoyl)-hydrazide]: 100 nM and 1.05.

Values taken from patent US7851220B2, “Diacylhydrazine ligands for modulating the expression of exogenous genes in mammalian systems via an ecdysone receptor complex” (priority 2003, dated 2010).
